The values that follow are results of earlier work, collected in PMC12309854, “Evidencing the role of a conserved polar signaling channel in the activation mechanism of the μ-opioid receptor” (Computational and Structural Biotechnology Journal, 2025).

In this data set the target is MOP. Set-up: method as in PMID 31527522. The conditions noted are these: value given in the method for the Cheng-Prusoff calculation, source not stated; protocol ref 58; read-out: Kd of the radioligand. On the procedure:
Binding assays were carried out following a previously published protocol, at 25 °C for a duration of 60 min using a 50 mM Tris–HCl buffer (pH 7.4) in glass tubes. […] Non-specific binding was evaluated u ...

Consider DAMGO [[^3H]DAMGO], for which the Kd is 0.5 nM.
